Results as given in publication PMC4941645, “Oxidative Stress Induced by Pt(IV) Pro-drugs Based on the Cisplatin Scaffold and Indole Carboxylic Acids in Axial Position” (Scientific Reports, 2016).

Assays:
[1] = tested on: MCF-7 breast carcinoma cells; experiment: MTT cytotoxicity test, MCF-7; assay type: cell-based, human; conditions: ± S.D.
Experimental: (§1) The cytotoxic activity of the complexes and of the uncoordinated ligands was evaluated by the MTT test on a panel of human tumor cell lines containing examples of pancreatic (BxPC3), colorectal (HCT-15), breast (MCF-7), cervical (A431), and lung (A549) cancers as well as of melanoma (A375). For comparison purposes, the cytotoxicity of cisplatin was evaluated under the same experimental conditions.
(§2) Cisplatin was dissolved in 0.9% NaCl solution.
(§3) Human breast (MCF-7), colon (HCT-15), lung (A549) and pancreatic (BxPC3) carcinoma cell lines together with melanoma (A375) cells were obtained from American Type Culture Collection (ATCC, Rockville, MD). The human ovarian cancer cell line 2008 and its cisplatin resistant variant, C13*, were kindly provided by Prof. G. Marverti (Department of Biomedical Science of Modena University, Italy). Human cervical carcinoma (A431) cells were kindly provided by Prof. F. Zunino (Division of Experimental Oncology B, Istituto Nazionale dei Tumori, Milan, Italy). Cell lines were maintained in the logarithmic phase at 37 °C in a 5% carbon dioxide atmosphere using the following culture media containing 10% fetal calf serum (Euroclone, Milan, Italy), antibiotics (50 units/mL penicillin and 50 μg/mL streptomycin) and 2 mM L-glutamine: (i) RPMI-1640 medium (Euroclone) for 2008, C13*, MCF-7, HCT-15, A431 and BxPC3 cells, (ii) F-12 HAM’S (Sigma Chemical Co.) for A549 cells, iii) DMEM (Sigma Chemical Co.) for A375 cells.
(§4) The growth inhibitory effect toward tumor cells was evaluated by means of the MTT assay. Briefly, (3–8) × 10^3 cells/well, dependent upon the growth characteristics of the cell line, were seeded in 96-well microplates in growth medium (100 μL). After 24 h, the medium was removed and replaced with fresh medium containing the compound to be studied at the appropriate concentration. Triplicate cultures were established for each treatment. After 24, 48, or 72 h, each well was treated with 10 μL of a 5 mg/mL MTT saline solution and, after 5 h of incubation, 100 μL of a sodium dodecylsulfate (SDS) solution in 0.01 M HCl was added. After an overnight incubation, cell growth inhibition was detected by measuring the absorbance of each well at 570 nm using a Bio-Rad 680 microplate reader. The mean absorbance for each drug dose was expressed as a percentage of the control, untreated well absorbance and plotted vs drug concentration. The IC50 values, the drug concentrations that decrease the mean absorbance at 570 nm to 50% of that of untreated control wells, were calculated from the dose–response curves with the four-parameter logistic model (4PL). The final value is the mean ± S.D. of at least three independent experiments performed in triplicate.

A375 melanoma cells = experiment: MTT cytotoxicity test, A375; assay type: cell-based, human; conditions: ± S.D.
Experimental: as §1, §2, §3, §4

[2] = Log P octanol/water, shake flask method with ICP-MS; assay type: physicochemical; conditions: n-octanol / 0.9% NaCl water, Pt by ICP-MS
Experimental: Partition coefficients (logP values) for octanol/water partition were determined in order to examine whether a correlation exists between lipophilicity and accumulation into cells. The log P values obtained (Table 3) give the trend in lipophilicity as mono indole acid complex < succinate complex < acetate complex < bis indole acid complex < benzoate complex for both the IAA and the IPA series.
The logP values of the Pt(IV) compounds were determined using the shake flask method. The respective Pt(IV) complex was dissolved in 0.9% NaCl (w/v) ultrapure water (presaturated with n-octanol). The solutions were sonicated and filtered to remove undissolved Pt(IV) compounds. The initial Pt concentrations were determined by ICP-MS. Subsequently, the Pt(IV) solutions were added to an equal volume of n-octanol (presaturated with 0.9% NaCl (w/v) ultrapure water). The heterogeneous mixtures were shaken vigorously for 30 min before centrifuging at 4000 rpm for 30 min to achieve phase separation. The final Pt concentration in the aqueous phase was determined again by ICP-MS. The logarithm of the ratio of Pt concentrations in the organic and aqueous phases was calculated to determine the logP values. All experiments were done in duplicate.

[3] = tested on: A431 cervical carcinoma cells; experiment: MTT cytotoxicity test, A431; assay type: cell-based, human; conditions: ± S.D.
Experimental: as §1, §2, §3, §4

[4] = tested on: panel of human tumor cell lines (BxPC3, HCT-15, MCF-7, A431, A549, A375); experiment: MTT cytotoxicity, mean over panel of human tumor cell lines; assay type: cell-based; conditions: for IC50: mean over the six cell lines of Table 1, 72 h
Experimental: as §1, §4

[5] = tested on: BxPC3 pancreatic carcinoma cells; experiment: MTT cytotoxicity test, BxPC3; assay type: cell-based, human; conditions: BxPC3, 72 h, MTT, ± S.D.
Experimental: as §1, §2, §3, §4

[6] = tested on: A549 lung carcinoma cells; experiment: cells; conditions: A549, 72 h
Experimental: as §1, §2, §3, §4

[7] = tested on: HCT-15 colon carcinoma cells; experiment: MTT cytotoxicity test, HCT-15; assay type: cell-based, human; conditions: HCT-15, 72 h, MTT, ± S.D.
Experimental: as §1, §2, §3, §4

[8] = tested on: 2008 ovarian cancer cells; experiment: MTT cytotoxicity test, cisplatin-sensitive 2008; assay type: cell-based, human; conditions: 2008 cisplatin-sensitive, 72 h, ± S.D.
Experimental: The cytotoxic properties of the complexes were also evaluated in a pair of tumor cell lines suitably selected for their sensitivity and resistance to cisplatin (adenocarcinoma cells 2008/C13^*). Cross-resistance profiles were evaluated by means of the resistance factor (RF), defined as the ratio between IC50 values calculated for the resistant cells and those obtained with the sensitive ones (Table 2). The phenomenon of cisplatin resistance is multifactorial in nature. Nevertheless, the main molecular mechanisms involved in drug resistance in C13* cancer cells have largely been identified. Indeed, in this cell line resistance is correlated to high cellular glutathione and thioredoxin reductase levels, reduced cellular drug uptake and enhanced repair of DNA damage. […] The RF values calculated for all derivatives were six- to nine-fold lower than that of cisplatin, clearly indicating the absence of cross-resistance.
as §2
Triplicate cultures were established for each treatment.

[9] = tested on: C13* cisplatin-resistant ovarian cancer cells; experiment: MTT cytotoxicity test, cisplatin-resistant C13*; assay type: cell-based, human; conditions: for IC50: C13* cisplatin-resistant, 72 h, MTT, ± S.D.; for RF (resistance factor): IC50 resistant (C13*) / parent line (2008)
Experimental: The cytotoxic properties of the complexes were also evaluated in a pair of tumor cell lines suitably selected for their sensitivity and resistance to cisplatin (adenocarcinoma cells 2008/C13^*). Cross-resistance profiles were evaluated by means of the resistance factor (RF), defined as the ratio between IC50 values calculated for the resistant cells and those obtained with the sensitive ones (Table 2). The phenomenon of cisplatin resistance is multifactorial in nature.
as §2, §3, §4

A375 cells = experiment: ROS production (CM-H2DCFDA probe); assay type: cell-based, human; conditions: A375, 12.5 μM, compared with antimycin positive control
Experimental: ROS are products of normal cell metabolism but their levels can be increased upon exposure to toxic agents or interference with the cellular redox network. […] Consequently, cellular ROS levels upon treatment with equal doses (12.5 μM) of the different platinum complexes were monitored in A375 cancer cells by using the peroxide-sensitive fluorescent probe CM-H2DCFDA (5-(and-6)-chloromethyl-2′,7′-dichlorodihydrofluorescein diacetate, acetyl ester). Antimycin, a classical inhibitor of the mitochondrial respiratory chain at the level of complex III, was used as a positive control.
Figure 8 ROS production in A375 cells. Cells were preincubated in PBS/10 mM glucose medium for 20 min at 37 °C in the presence of 10 μM CM-DCFDA and then treated with equimolar doses (12.5 μM) of indole propionic acid Pt(IV) derivatives (panel A) or indole acetic acid Pt(IV) derivatives (panel B). The fluorescence of DCF was measured.
The production of ROS was measured in A375 cells (10^4 per well) grown for 24 h in 96-well plates in DMEM medium without phenol red (Sigma Chemical Co.). Cells were then washed with PBS and loaded with 10 μM 5-(and-6)-chloromethyl-2′,7′-dichlorodihydrofluorescein diacetate, acetyl ester (CM–H2DCFDA) (Molecular Probes-Invitrogen) for 25 min in the dark. Afterwards, cells were washed with PBS and incubated with increasing concentrations of the tested complexes. The fluorescence increase was estimated with a plate reader (Fluoroskan Ascent FL, Labsystem, Finland) at 485 (excitation) and 527 nm (emission). Antimycin (3 μM, Sigma Chemical Co.), a potent inhibitor of Complex III in the electron transport chain, was used as positive control.

[10] = tested on: nuclear DNA of A375 cells; experiment: Nuclear DNA platination (GF-AAS); assay type: cell-based, human; conditions: A375, 5 μM, 24 h
Experimental: It is well known that the main cellular target of platinum complexes is the DNA, and platination of nuclear DNA is a critical step in triggering the death of cancer cells by platinum-based drugs. On this basis, the amount of platinum bound to nuclear DNA was also assessed in A375 cells treated with the tested Pt(IV) complexes. Cells were treated for 24 h with 5 μM of the tested complexes, the nuclear DNA was isolated and the amount of Pt in each sample was determined by means of GF-AAS analysis. The results expressed as pg Pt/ng DNA are depicted in Fig. 7. […] In particular, 1P led to a roughly 60-fold higher DNA platination level with respect to cisplatin.
A375 cells (3 × 10^6) were seeded in 10 cm Petri dishes in 10 mL of culture medium. Subsequently, cells were treated with the tested complexes (5 μM) for 24 h. The DNA was extracted and purified by a commercial spin column quantification kit (Qiagen DNeasy Blood and Tissue Kit). Only highly purified samples (A260/A230 ≅ 1.8 and […]) were included for analysis to avoid any artifacts. The samples were completely dried and re-dissolved in 200 μL of Milli-Q water (18.2 MΩ) for at least 20 min at 65 °C in a shaking thermo-mixer, mineralized and analyzed for total Pt content by GF-AAS as described above.

| SMILES | IC50 ([1]; MCF-7, 72 h) [µM] | IC50 (A375 melanoma cells; A375, 72 h) [µM] | Log P (octanol/water) [2] | IC50 ([3]; A431, 72 h) [µM] | IC50 [4] [µM] | IC50 [5] [µM] | IC50 ([6]; MTT, ± S.D.) [µM] | IC50 [7] [µM] | IC50 [8] [µM] | IC50 [9] [µM] | RF (resistance factor) [9] | IC50 ([1]; Homo sapiens, MCF7, MCF-7, 72 h) [µM] | IC50 (A375 melanoma cells; Homo sapiens, A-375, A375, 72 h) [µM] | ROS production (in words) (A375 cells) | IC50 ([3]; Homo sapiens, A-431, A431, 72 h) [µM] | cytotoxic effect (in words) ([4]; free ligands) | IC50 ([5]; Homo sapiens, BXPC-3) [µM] | IC50 ([6]; Homo sapiens) [µM] | IC50 ([7]; Homo sapiens) [µM] | DNA platination (in words) [10] |
| --- | --- | --- | --- | --- | --- | --- | --- | --- | --- | --- | --- | --- | --- | --- | --- | --- | --- | --- | --- | --- |
| N.N.O=C(CCc1c[nH]c2ccccc12)[O][Pt]([Cl])([Cl])[O]C(=O)CCc1c[nH]c2ccccc12 [Complex 2P] | 5.54 ± 0.67 | 1.35 ± 0.75 | −0.051 ± 0.06 | 3 ± 0.35 | 4.9 | 2.56 ± 0.65 | 2.87 ± 1.59 | 14 ± 1.56 | 8.37 ± 2.12 | 2.91 ± 0.64 | 0.4 |  |  |  |  |  |  |  |  |  |
| O=C(O)Cc1c[nH]c2ccccc12 [IAA, indole-3-acetic acid, reference compound] |  |  |  |  |  |  |  |  |  |  |  | > 50 | > 50 | no effect on cellular basal ROS levels | > 50 | did not elicit any significant cytotoxic effect | > 50 | > 50 | > 50 |  |
| CC(=O)[O][Pt]([NH2])([NH2])([Cl])([Cl])[O]C(=O)CCc1c[nH]c2ccccc12 [Complex 5P] | 21.01 ± 0.06 | 3.15 ± 0.02 | −0.080 ± 0.04 | 5.35 ± 2.11 | 11.1 | 19.5 ± 0.68 | 3.62 ± 0.18 | 14.03 ± 0.14 | 18 ± 1.33 | 21.9 ± 2.48 | 1.2 |  |  |  |  |  |  |  |  | least effective |
| N.N.O=C(Cc1c[nH]c2ccccc12)[O][Pt]([Cl])([Cl])[O]C(=O)Cc1c[nH]c2ccccc12 [Complex 2A] | 3.7 ± 0.29 | 1.85 ± 0.23 | −0.068 ± 0.07 | 13.3 ± 0.84 |  | 3.32 ± 0.21 | 3.75 ± 1.31 | 25.2 ± 0.89 | 11 ± 2.14 | 3.44 ± 0.59 | 0.3 |  |  | less effective compared to the positive control |  |  |  |  |  |  |
